Laboratory results taken from patent US10517867B2, “Posaconazole derivative, pharmaceutical composition and use thereof” (priority 2016, dated 2019).
Read-outs that look alike come from different tables or passages of the source.

Legend:
[1] = tested on: Candida albicans ATCC10231; assay: Candida albicans vaginitis in mice, intragastric administration; assay type: in vivo, KM mice; settings: logarithm of the CFU values, mean ± SD of 20 mice; for vaginal fungal load of mice, day 15: 20 mg/kg intragastric once a day for 15 days; for vaginal fungal load of mice, day 3 / vaginal fungal load of mice, day 5 / vaginal fungal load of mice, day 7 / vaginal fungal load of mice, day 11: 20 mg/kg intragastric once a day
[2] = tested on: Candida albicans ATCC10231; assay: Candida albicans vaginitis in mice, intravenous administration; settings: logarithm of the CFU values, mean ± SD of 20 mice; for vaginal fungal load of mice, day 5: 20 mg/kg tail vein once a day for 5 days, day 5 after infection; for vaginal fungal load of mice, day 3: 20 mg/kg tail vein once a day, day 3 after infection
Protocol: KM mice, weighing 18-22 g, female, provided by Hubei Experimental Animal Center.
The standard strain of Candida albicans was purchased from the American Type Culture
Collection, strain number ATCC10231.
Prior to being infected with Candida albicans, animals in each group were given subcutaneous injections of 0.5 ml of estradiol benzoate (2 mg/ml) for 6 consecutive days to allow them to enter the estrus phase. Injections were continued once every 2 days until the completion of the experiment. After 6 days, 20 μl of Candida albicans solution in a concentration of 3.5×10^6 CFU/ml was injected vaginally into each mouse, causing a vaginal infection model. From the first day after infection, each group of animals was given 20 mg/kg of the corresponding drug (calculated as posaconazole) in the tail vein at an administration volume of 0.1 ml/10 g once a day for 5 consecutive days. The model group was given an equal volume of solvent (physiological saline). On the 3rd and 5th days after infection, the vagina of mice were wiped with sterile cotton swabs. The cotton swabs were soaked in 0.9 ml physiological saline. The fungal solutions were diluted to 10-fold increments to give a series of concentrations, and then 100 μl of each concentration of the bacteria solutions was taken and inoculated on Sabourand's dextrose agar solid medium containing 0.5% (W/V) chloramphenicol to observe the fungal load of Candida albicans on the vagina.

[3] = tested on: Aspergillus Fumigutus (AF) strains; assay: Aspergillus fumigatus keratitis in rats, intravenous administration; settings: 10 mg/kg tail vein once daily for 5 days; mean ± SD of 10 rats
[4] = Determination of solubility in deionized water (HPLC, external standard); settings: for solubility at 30 min: 25 °C, water, thermodynamic from solid
[5] = tested on: Aspergillus fumigatus AF293; assay: Lung Aspergillus fumigatus infection in immunosuppressed mice, intravenous administration; settings: for lung fungal load: mouse lung tissue, seven days later, mean ± SD; for responders at 20 mg/kg: Aspergillus fumigatus, AF293, in Mus musculus, iv
Protocol: ICR male mice were injected intraperitoneally with cyclophosphamide 150 mg/kg and injected subcutaneously with dexamethasone 150 mg/kg for 10 consecutive days. At the same time, the blood was taken to measure the changes of peripheral white blood cells and neutrophils, and mice with neutrophils consistently lower than 100/μl were selected as successfully immunosuppressed mice. Immediately after the last injection, the mice were anesthetized with ethyl ether, and mice were transferred from the initial state of excitement to inhibition. After their bodies were relaxed, the mice were immediately taken. Left hand was used to grasp the mouse to make it stand upright, the middle finger pressed the mouth so that it could breath only with the nose, and the ring finger gently pressed the abdomen to move the diaphragm muscle upward. 30 μl of conidia suspension (Aspergillus fumigatus AF293, 3×10^6 conidia) was sent to the nostrils of the anesthetized mice by a micropipette to allow spontaneous inhalation. After the mouse returned to normal breathing, it was returned to the cage. […] The death of the mice was observed and the survival time was recorded. Seven days later, the mice were sacrificed and their lung tissues were taken to observe the fungal loads of Aspergillus fumigatus in the lungs of the mice.

[6] = tested on: Aspergillus fumigatus AF293; assay: Lung Aspergillus fumigatus infection in immunosuppressed mice, intragastric administration; settings: mouse lung tissue, seven days later, 20 mg/kg intragastric once daily for 5 days, mean ± SD
Protocol: Aspergillus fumigatus AF293, from the Guangdong Provincial Microbial Culture Collection Center.
ICR male mice were injected intraperitoneally with cyclophosphamide 150 mg/kg and injected subcutaneously with dexamethasone 150 mg/kg for 10 consecutive days. At the same time, the blood was taken to measure the changes of peripheral white blood cells and neutrophils, and mice with neutrophils consistently lower than 100/μl were selected as successfully immunosuppressed mice. Immediately after the last injection, the mice were anesthetized with ethyl ether, and mice were transferred from the initial state of excitement to inhibition. After their bodies were relaxed, the mice were immediately taken. Left hand was used to grasp the mouse to make it stand upright, the middle finger pressed the mouth so that it could breath only with the nose, and the ring finger gently pressed the abdomen to move the diaphragm muscle upward. 30 μl of conidia suspension (Aspergillus fumigatus AF293, 3×10^6 conidia) was sent to the nostrils of the anesthetized mice by a micropipette to allow spontaneous inhalation. After the mouse returned to normal breathing, it was returned to the cage. […] Seven days later, the mice were sacrificed and their lung tissues were taken to observe the fungal loads of Aspergillus fumigatus in the lungs of the mice.

[7] = tested on: Candida albicans ATCC10231; assay: Systemic fungal infection in mice, intragastric administration; assay type: in vivo, ICR mice; settings: for responders at 20 mg/kg: Candida albicans, ATCC10231, po
[8] = Pharmacokinetics after single intragastric administration to rats; assay type: in vivo, SD rats; settings: plasma posaconazole, 2.5 mg/kg (calculated as posaconazole)
Protocol: Administration amount: 2.5 mg/kg (calculated as posaconazole)
Administration volume: 10 ml/kg
Drug concentration: 0.25 mg/mL
Administration vehicle: the positive drug posaconazole group used CMC—Na, while other groups used normal saline (physiological saline)
Administration route: intragastric administration
Experimental animals: SD rats, SPF grade, weighing 180-220 g, equal amount of male and female. Rats were randomly divided into groups of 6 with 3 males and 3 females.
Experimental protocol: after oral intragastric administration, blood samples were collected at different time points to determine the concentration of posaconazole in the plasma and the pharmacokinetic parameters of posaconazole were obtained.

[9] = In vitro metabolic stability in human plasma; assay type: in vitro ADME; settings: 37° C., 10 μM compound, metabolic half-life
How it was run: (§1)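 Human or rat plasma, preincubated 5 min at 37 °C, or intestinal S9 at 37 °C, spiked from 1 mM stock; triplicates sampled at 1, 2, 5, 15 and 30 min into cold internal standard. HPLC quantitation; half-life by non-compartmental analysis.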

[10] = In vitro metabolic stability in human intestine S9; assay type: in vitro ADME; settings: 37° C., 10 μM compound, 1 mg/mL S9, NADPH regeneration system
How it was run: as §1

[11] = In vitro metabolic stability in rat plasma; assay type: in vitro ADME; settings: 37° C., 10 μM compound, metabolic half-life
How it was run: as §1

[12] = In vitro metabolic stability in rat intestine S9; assay type: in vitro ADME; settings: 37° C., 10 μM compound, 1 mg/mL S9, NADPH regeneration system
How it was run: as §1

[13] = Solid stability test (stability chamber, HPLC total impurity); assay type: physicochemical; settings: solid, packaged, 25° C.±2° C., relative humidity 60%±2%
[14] = 24 h, read-out: survival rate of mice, day 1, 20 mg/kg tail vein once daily for 5 days, day 1
[15] = 48 h, read-out: survival rate of mice, day 2, 20 mg/kg tail vein once daily for 5 days, day 2
[16] = 72 h, read-out: survival rate of mice, day 3, 20 mg/kg tail vein once daily for 5 days, day 3
[17] = 96 h, read-out: survival rate of mice, day 4, 20 mg/kg tail vein once daily for 5 days, day 4
[18] = 120 h, read-out: survival rate of mice, day 5, 20 mg/kg tail vein once daily for 5 days, day 5
[19] = 144 h, read-out: survival rate of mice, day 6, 20 mg/kg tail vein once daily for 5 days, day 6
[20] = 168 h, read-out: survival rate of mice, day 7, 20 mg/kg tail vein once daily for 5 days, day 7
[21] = 20 mg/kg tail vein once daily for 5 days

## CC[C@@H]([C@H](C)O)n1ncn(-c2ccc(N3CCN(c4ccc(OC[C@@H]5CO[C@@](Cn6c[n+](C(C)OC(=O)N(C)c7ncccc7COC(=O)[C@@H](N)CCCN)cn6)(c6ccc(F)cc6F)C5)cc4)CC3)cc2)c1=O (stereo partly drawn) [ST0007]
[1]; 20 mg/kg
  vaginal fungal load of mice, day 15: 2.87 ± 0.24
  vaginal fungal load of mice, day 3: 4.35 ± 0.54
  vaginal fungal load of mice, day 5: 4.47 ± 0.65
  vaginal fungal load of mice, day 7: 4.23 ± 0.41
  vaginal fungal load of mice, day 11: 3.81 ± 0.27
[2]; 20 mg/kg
  vaginal fungal load of mice, day 5: 3.87 ± 0.31
  vaginal fungal load of mice, day 3: 4.08 ± 0.52
[3]
  Amount of active fungi in cornea at day 7: 1.87 ± 0.35 10^3 CFU/ml
[4]
  solubility at 30 min: > 50 mg/mL
[5]; 20 mg/kg tail vein once daily for 5 days, day 1
  survival rate of mice, day 1: 100%
[5]; 20 mg/kg tail vein once daily for 5 days, day 2
  survival rate of mice, day 2: 100%
[5]; 20 mg/kg tail vein once daily for 5 days, day 3
  survival rate of mice, day 3: 100%
[5]; 20 mg/kg tail vein once daily for 5 days, day 4
  survival rate of mice, day 4: 100%
[5]; 20 mg/kg tail vein once daily for 5 days, day 5
  survival rate of mice, day 5: 90%
[5]; 20 mg/kg tail vein once daily for 5 days, day 6
  survival rate of mice, day 6: 90%
[5]; 20 mg/kg tail vein once daily for 5 days, 20 mg/kg
  lung fungal load: 1.68 ± 0.31 10^4 CFU/ml
[6]; 20 mg/kg
  lung fungal load: 4.12 ± 0.87 10^4 CFU/ml

## CC[C@@H]([C@H](C)OP(=O)(O)O)n1ncn(-c2ccc(N3CCN(c4ccc(OC[C@@H]5CO[C@@](Cn6c[n+](C(C)OC(=O)N(C)c7ncccc7COC(=O)[C@@H](N)CCCN)cn6)(c6ccc(F)cc6F)C5)cc4)CC3)cc2)c1=O (stereo partly drawn) [ST0009]
[2]
  vaginal fungal load of mice, day 5: 3.89 ± 0.54
  vaginal fungal load of mice, day 3: 4.05 ± 0.23
[3]
  Amount of active fungi in cornea at day 7: 2.76 ± 0.45 10^3 CFU/ml
[4]
  solubility at 30 min: > 50 mg/mL
[5]; [14]
  responders at 20 mg/kg: 100%
[5]; [15]
  responders at 20 mg/kg: 100%
[5]; [16]
  responders at 20 mg/kg: 100%
[5]; [17]
  responders at 20 mg/kg: 90%
[5]; [18]
  responders at 20 mg/kg: 80%
[5]; [19]
  responders at 20 mg/kg: 80%
[5]; [20]
  responders at 20 mg/kg: 70%
[5]; [21]
  lung fungal load: 2.03 ± 0.46 10^4 CFU/ml
[6]
  lung fungal load: 3.91 ± 0.85 10^4 CFU/ml

## CC[C@@H]([C@H](C)OC(=O)[C@@H](N)CO)n1ncn(-c2ccc(N3CCN(c4ccc(OC[C@@H]5CO[C@@](Cn6c[n+](C(C)OC(=O)N(C)c7ncccc7COC(=O)[C@@H](N)CCCN)cn6)(c6ccc(F)cc6F)C5)cc4)CC3)cc2)c1=O (stereo partly drawn) [ST0010]
[1]
  vaginal fungal load of mice, day 15: 2.75 ± 0.41
  vaginal fungal load of mice, day 3: 4.21 ± 0.32
  vaginal fungal load of mice, day 5: 4.38 ± 0.41
  vaginal fungal load of mice, day 7: 3.97 ± 0.55
  vaginal fungal load of mice, day 11: 3.37 ± 0.28
[7]; 24 h, read-out: survival rate of mice, day 1, 20 mg/kg intragastric once daily for 5 days, day 1
  responders at 20 mg/kg: 100%
[7]; 48 h, read-out: survival rate of mice, day 2, 20 mg/kg intragastric once daily for 5 days, day 2
  responders at 20 mg/kg: 100%
[7]; 72 h, read-out: survival rate of mice, day 3, 20 mg/kg intragastric once daily for 5 days, day 3
  responders at 20 mg/kg: 90%
[7]; 96 h, read-out: survival rate of mice, day 4, 20 mg/kg intragastric once daily for 5 days, day 4
  responders at 20 mg/kg: 70%
[7]; 120 h, read-out: survival rate of mice, day 5, 20 mg/kg intragastric once daily for 5 days, day 5
  responders at 20 mg/kg: 70%
[7]; 144 h, read-out: survival rate of mice, day 6, 20 mg/kg intragastric once daily for 5 days, day 6
  responders at 20 mg/kg: 60%
[7]; 168 h, read-out: survival rate of mice, day 7, 20 mg/kg intragastric once daily for 5 days, day 7
  responders at 20 mg/kg: 60%
[3]
  Amount of active fungi in cornea at day 7: 3.93 ± 0.73 10^3 CFU/ml
[4]
  solubility at 30 min: > 50 mg/mL
[5]; [14]
  responders at 20 mg/kg: 100%
[5]; [15]
  responders at 20 mg/kg: 100%
[5]; [16]
  responders at 20 mg/kg: 90%
[5]; [17]
  responders at 20 mg/kg: 80%
[5]; [18]
  responders at 20 mg/kg: 80%
[5]; [19]
  responders at 20 mg/kg: 70%
[5]; [20]
  responders at 20 mg/kg: 60%
[5]; [21]
  lung fungal load: 2.75 ± 0.37 10^4 CFU/ml
[6]
  lung fungal load: 3.40 ± 0.63 10^4 CFU/ml

## CC[C@@H]([C@H](C)O)n1ncn(-c2ccc(N3CCN(c4ccc(OC[C@@H]5CO[C@@](Cn6c[n+](C(C)OC(=O)NCC(=O)[O-])cn6)(c6ccc(F)cc6F)C5)cc4)CC3)cc2)c1=O.[Cl-].[Na+] (stereo partly drawn) [ST0019]
[8]
  AUClast: 1985 ± 358 ng·h/mL
  Cmax: 102 ± 26 ng/mL
  T1/2: 684.6 ± 195 min

## CCC(O[C@@H](C)[C@H](CC)n1ncn(-c2ccc(N3CCN(c4ccc(OC[C@@H]5CO[C@@](Cn6cncn6)(c6ccc(F)cc6F)C5)cc4)CC3)cc2)c1=O)OP(=O)([O-])[O-].[Na+].[Na+] (stereo partly drawn) [ST0093]
[9]
  Human plasma T1/2: 18.95 ± 2.76 min
[10]
  Human intestine S9 T1/2: 61.98 ± 14.26 min
[11]
  Rat plasma T1/2: 15.69 ± 4.88 min
[12]
  Rat intestine S9 T1/2: 57.25 ± 12.56 min
[13]
  Total impurity increment in 30 days: 0.91%
[8]
  AUClast: 3056 ± 1265 ng·h/mL
  Cmax: 125 ± 58 ng/mL
  T1/2: 746.4 ± 128 min
[7]; 20 mg/kg intragastric once daily for 5 days, day 1
  survival rate of mice, day 1: 70%
[7]; 20 mg/kg intragastric once daily for 5 days, day 2
  survival rate of mice, day 2: 70%
[7]; 20 mg/kg intragastric once daily for 5 days, day 3
  survival rate of mice, day 3: 60%
[7]; 20 mg/kg intragastric once daily for 5 days, day 4
  survival rate of mice, day 4: 60%
[7]; 20 mg/kg intragastric once daily for 5 days, day 5
  survival rate of mice, day 5: 60%
[7]; 20 mg/kg intragastric once daily for 5 days, day 6
  survival rate of mice, day 6: 60%
[7]; 20 mg/kg intragastric once daily for 5 days, day 7
  survival rate of mice, day 7: 60%
[4]; 25±2° C., after 30 min
  Solubility: 27.9 mg/mL
